Assay results published in ChEMBL document CHEMBL1126214, “Muscarinic agonist SAR of azaspirodioxolanes” (Bioorg Med Chem Lett, 1992).

Key:
[1] = target: T1, Muscarinic acetylcholine receptor M1 (Rattus norvegicus, UniProt P08482); assay: In vitro 100 nM cortex affinity to displace [3H]- -CD providing a measure of muscarinic m1 receptor agonist affinity
T1 sequence (P08482 whole entry): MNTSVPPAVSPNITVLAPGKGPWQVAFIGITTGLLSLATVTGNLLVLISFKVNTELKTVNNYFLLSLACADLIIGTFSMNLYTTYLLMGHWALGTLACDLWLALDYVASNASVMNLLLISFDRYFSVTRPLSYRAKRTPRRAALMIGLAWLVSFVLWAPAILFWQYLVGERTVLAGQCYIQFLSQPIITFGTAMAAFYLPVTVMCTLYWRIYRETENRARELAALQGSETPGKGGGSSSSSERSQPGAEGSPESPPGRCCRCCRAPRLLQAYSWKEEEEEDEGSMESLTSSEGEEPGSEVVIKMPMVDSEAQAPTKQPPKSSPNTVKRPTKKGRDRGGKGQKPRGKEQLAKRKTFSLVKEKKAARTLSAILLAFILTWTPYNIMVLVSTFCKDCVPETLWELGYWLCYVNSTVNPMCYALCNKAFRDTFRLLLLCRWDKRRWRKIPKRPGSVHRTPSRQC

[2] = target: T1, Muscarinic acetylcholine receptor M1; assay: In vitro 100 nM cortex affinity to displace [3H]- -pirenzepine providing a measure of muscarinic m1 receptor antagonist affinity
[3] = target: T2, Muscarinic acetylcholine receptor M1 (Rattus norvegicus) (UniProt P08482); conditions: Ileum
T2 sequence (whole entry): T1 sequence (P08482 whole entry)
Description: In vitro for muscarinic M1 receptor agonist potency in the ileum model as a functional measure of peripheral muscarinic activity.

[4] = target: T2, Muscarinic acetylcholine receptor M1 (Rattus norvegicus)
Description: In vitro muscarinic agonist potency in the ganglion model as a functional measure of central muscarinic M1 receptor activity.

[5] = target: T2, Muscarinic acetylcholine receptor M1 (Rattus norvegicus); assay: Compound was tested in vitro for its muscarinic agonist potency in the ganglion model as a functional measure of central muscarinic m1 receptor activity
[6] = target: T1, Muscarinic acetylcholine receptor M1; assay: (§1) Compound was tested in vitro for its muscarinic m1 receptor agonist potency in the ileum model as a functional measure of peripheral muscarinic m1 receptor activity; format: tissue-based; conditions: read-out: pA2 (converted)
[7] = target: T1, Muscarinic acetylcholine receptor M1; assay: Compound was tested in vitro for its efficacy in the ileum model as a functional measure of peripheral muscarinic m1 receptor activity; format: tissue-based; conditions: read-out: pA2 (converted)
[8] = target: T2, Muscarinic acetylcholine receptor M1 (Rattus norvegicus); assay: as §1; format: tissue-based

Row | SMILES | Ki [1] [nM] | Ki [2] [nM] | pD2 [3] | pD2 [4] | pD2 [5] | Kb [6] [nM] | Kb [7] [nM] | pD2 [8]
1 | C[C@H]1OC[C@@H](C[N+](C)(C)C)O1 | 6.4 | 2100 | 7.5 | 7.8 | – | – | – | –
2 | CCC1C(=O)CC2(CCN(C)CC2)C1=O (centres undefined) | 87 | 765 | 6.1 | 6.7 | – | – | – | –
3 | CC1OCC2(CCCN(C)C2)O1 (centres undefined) | – | – | < 4 | < 4 | – | – | – | –
4 | C[C@@H]1OCC2(CCN(C)C2)O1 (stereo in doubt; cis) [listing 1 of 2 here] | 550 | > 10000 | – | – | – | – | – | –
5 | CC1OC[C@@]2(CN3CCC2C3)O1 (some centres undefined) | 30 | 1950 | 5.9 | – | 6.5 | – | – | –
6 | CC1OC2(CCN(C)CC2)CS1 (centres undefined) | 185 | 2650 | 6 | 6.1 | – | – | – | –
7 | CN1CCC2(CC1)COC(c1ccccc1)O2 (centres undefined) | 2800 | 620 | – | – | – | 5010 | – | –
8 | C[C@@H]1OC2(CS1)CN1CCC2CC1 (some centres undefined) | 515 | 1250 | 5.4 | 5.7 | – | – | – | –
9 | CC[C@H](C)[C@@H]1NC(=O)[C@H](CCCN=C(N)N)NC(=O)[C@@H](CC(=O)O)NC(=O)[C@H]([C@@H](C)CC)NC(=O)[C@@H](CCCN=C(N)N)NC(=O)CNC(=O)CNC(=O)[C@@H](Cc2ccccc2)NC(=O)[C@H](C)NC(=O)[C@@H](NC(=O)[C@H](CO)NC(=O)[C@@H](N)CO)CSSC[C@@H](C(=O)N2C[C@H](C(=O)N[C@H](CCCN=C(N)N)C(=O)O)Cc3ccccc32)NC1=O | – | – | 4.1 | < 4 | – | – | – | –
10 | C[C@@H]1OCC2(CN3CCC2C3)O1 (some centres undefined) | 180 | 6400 | 5.5 | 5.7 | – | – | – | –
11 | CN1CCC2(CC1)COC(c1ccccc1)(c1ccccc1)O2 | 8.1 | 0.6 | – | – | – | 10 | 6.31 | –
12 | CN1CCC2(CC1)COC(C)(C)O2 | > 10000 | > 10000 | – | < 4 | – | – | – | < 4
13 | CN1CCC2(CC1)COC(C(Cl)(Cl)Cl)O2 (centres undefined) | 960 | 200 | – | – | – | – | – | –
14 | CC1OCC2(CC[N+](C)(C)CC2)O1 (centres undefined) | 210 | 5000 | 5.2 | 6.1 | – | – | – | –
15 | C[C@H]1OCC2(CN3CCC2C3)O1 (some centres undefined) | 1850 | > 10000 | 4.1 | 4.4 | – | – | – | –
16 | C[C@@H]1O[C@H](C[N+](C)(C)C)C[C@H]1O | – | – | 6.8 | 7.4 | – | – | – | –

Row | SMILES | Ki [1] [nM] | Ki [2] [nM] | pD2 [3] | pD2 [4] | pD2 [5] | Kb [6] [nM] | Kb [7] [nM] | pD2 [8]
17 | C[C@@H]1OCC2(CCN(C)C2)O1 (stereo in doubt; trans) [listing 1 of 2 here] | 1750 | > 10000 | – | – | – | – | – | –
18 | C[C@@H]1OCC2(CN3CCC2CC3)O1 (some centres undefined) | 90 | 1570 | 4.8 | 6 | – | – | – | –
19 | C[C@@H]1OCC2(CCN(C)C2)S1 (some centres undefined) | 9150 | > 10000 | – | – | – | – | – | –
20 | CCC1OCC2(CCN(C)CC2)O1 (centres undefined) | 745 | 1320 | 5 | 5.5 | – | – | – | –
21 | CC1OCC2(CCN(C)CC2)S1 (centres undefined) | 720 | 3160 | 5.1 | 5.6 | – | – | – | –
22 | C#CC1OCC2(CCN(C)CC2)O1 (centres undefined) | 295 | 3000 | 5.2 | 5.9 | – | – | – | –
23 | CC1OCC2(CCNCC2)O1 (centres undefined) | 145 | > 10000 | 5.1 | 5.9 | – | – | – | –
24 | CC1SCC2(CCN(C)CC2)S1 (centres undefined) | 530 | 2100 | 4.9 | 5 | – | – | – | –
25 | CC1C(=O)CC2(CCN(C)CC2)C1=O (centres undefined) | 175 | 4050 | 5.5 | 6.2 | – | – | – | –
26 | C[C@H]1OC2(CCN(C)C2)CS1 (some centres undefined) | 585 | 6700 | 5.2 | 5.7 | – | – | – | –
27 | C[C@H]1OC2(CS1)CN1CCC2CC1 (some centres undefined) | 105 | 430 | 4.9 | 6.1 | – | – | – | –
28 | C[C@@H]1OCC2(CCN(C)C2)O1 (stereo in doubt; trans) [listing 2 of 2 here] | – | – | 4.5 | – | – | – | – | –
29 | C[C@@H]1OCC2(CCN(C)C2)O1 (stereo in doubt; cis) [listing 2 of 2 here] | – | – | 5.2 | 5.6 | – | – | – | –
30 | CN1CCC2(CC1)COCO2 | 1200 | > 10000 | 4.6 | – | 4.6 | – | – | –
31 | COC1OCC2(CCN(C)CC2)O1 (centres undefined) | 870 | > 10000 | 4.7 | 5.5 | – | – | – | –
